According to patent US11292787B2, “Five-membered-fused-six-membered aza-aromatic ring compound, preparation method thereof, pharmaceutical composition and application thereof” (XIAMEN UNIVERSITY, priority 2017, dated 2022):
Entries after “also recorded” stand apart in the source; their conditions may differ.

Assays:
K-Ras protein = target: T1, K-Ras protein (Homo sapiens, UniProt P01116, G12V); experiment: K-Ras protein degradation rate by Western blot in SW-620 cells; assay type: cell-based; details: for percent K-Ras protein degradation (single point) at 10 µM: SW-620 cells, 24 h, Western blot, relative to DMSO control, read-out: Degradation rate of compounds at 10 μM on Ras protein (%)
T1 construct: in SW620 cells, compound I-a-1 can effectively enhance the degradation of endogenous K-RAS-G12V proteins; endogenous in cells; host or cells: SW-620
Protocol: (§1) Inhibitory activity of compounds on K-RAS was evaluated by the degradation rate of protein level of administration group relative to control group (Cell Rep 2014, 7, 871-882).
(§2) The specific method was as follows:
1. Cell plating: SW-620 cells in logarithmic growth phase were inoculated into a 24-well plate at 2×10^4/well, and cultured in a 37° C., 5% CO2 incubator.
2. Administering drug to cells: after 24 h of culture, various drug stocks […]; the original solution in the 24-well plate was discarded, to which was added the obtained drug solution, with the DMSO group as the blank control; after the drug solution was added, the 24-well plate was transferred to the 37° C. CO2 incubator to continue the culture.
3. Detection of K-Ras protein level: after 24 h of administration and culture, the liquid in the well was discarded, the cells were routinely collected, and rinsed twice with 1×PBS, a cell lysate was added to extract the total cellular protein, and the protein concentration was determined by BCA method. 30 μg of the protein sample was taken for SDS-polyacrylamide gel electrophoretic transmembrane, the membrane was blocked sequentially, incubated with K-Ras antibody (1:1000) and internal reference antibody β-actin (1:2000) respectively overnight at 4° C., rinsed with TBST for 5 min×3 times, then incubated with the addition of the corresponding horseradish peroxidase-labeled secondary antibody (1:5000) for 1-2 h, and rinsed with TBST for 5 min×3 times. Finally, chemiluminescence image was acquired using Image Lab software.
4. Calculation of single-point K-Ras protein degradation rate: quantitative and calibration analysis of K-Ras and β-actin were conducted using Image-Lab software, and then the intracellular K-Ras degradation rate was calculated according to the following formula: single-point K-Ras protein degradation rate (%)=(control group−administration group)/control group×100%. The drug with degradation rate ≥20% was selected for soft agar experiment.

MCF-7 cells = experiment: Soft agar colony formation, MCF-7 cells (K-RAS-WT); assay type: cell-based; details: K-RAS-WT genetic background, FIG. 2a
Protocol: as §2
(§3) 1) 1% agar was formulated, and autoclaved. 1% agar was heated and melted in a boiling water bath before use, and then cooled in a 40° C. water bath (by holding in the bath for at least 30 minutes, the agar was cooled to a temperature of 40° C.); at the same time, 2×DMEM/FBS was placed in a warm bath. 2) A bottom agar with 0.5% agar was prepared by mixing 1% agar with 2×DMEM/FBS in a sterile tube at a volume ratio of 1:1. The mixed solution was added to a 6-well plate rapidly at 1.5 ml per well, shaked slightly, and placed at room temperature for solidification (after solidification, the bottom agar could be stored at 4° C. for 1 week. Before use, it was placed at room temperature for at least 30 minutes to return to room temperature).
(§4) 1) A mixed solution with a final concentration of 0.3% agar+1×DMEM/FBS was formulated in a sterile tube using 1% agar, 2×DMEM/FBS and sterile water at a temperature of 40° C. The prepared mixed solution was placed in a 40° C. water bath for use.
(§5) 2) The cells were trypsinized and counted. The cell density was adjusted according to the needs of the experiment. […]

SW620 xenograft = experiment: Nude mouse SW620 xenograft tumor experiment; assay type: in vivo, nude mice; details: tail vein, 40 mg/kg, 80 mg/kg per day, 10 days
Protocol: as §2
1. 4-5 weeks old nude mice were subcutaneously injected with a SW620 cell suspension with a cell number controlled at about 5×10^6.
2. The tumor-bearing condition was observed after two to three days, and the mice were administered when the tumor volume was about 150 mm^3.
4. The mice were injected intravenously regularly with drug or control solvent every day, and the daily tumor volume was recorded.
5. The mice were continuously administered for 10 days, and the changes in tumor volume of the drug-administered group and the control group were observed.
6. 10 days later, eyeball blood was taken from all mice, and blood samples were kept for subsequent testing. After the mice were killed, the subcutaneously growing tumors were completely taken out, the tumor weights were recorded, and the tumors were stored in liquid nitrogen for subsequent testing.

HT-29 cells = experiment: Soft agar colony formation, HT-29 cells (RAF mutation); assay type: cell-based; details: RAF mutation genetic background, FIG. 2c
Protocol: as §2, §3, §4, §5

K-RAS-G12V = target: T2, K-RAS-G12V (Homo sapiens, UniProt P01116, G12V); experiment: Degradation of overexpressed K-RAS-G12V protein in 293T cells (FIG. 1a); assay type: cell-based; details: 293T cells overexpressing K-RAS-G12V
T2 construct: expressed in transfected cells; host or cells: 293T
Protocol: as §1

SW620 cells = experiment: Soft agar colony formation, SW620 cells (K-RAS-G12V); assay type: cell-based; details: K-RAS-G12V genetic background, FIG. 2b
Protocol: as §2, §3, §4, §5

percent K-Ras protein degradation (single point) at 10 µM (K-Ras protein)	SMILES	degradation of endogenous K-RAS-G12V protein (K-Ras protein; SW620 cells, FIG. 1b)	colony formation on soft agar (MCF-7 cells)	tumor growth (tumor volume) (SW620 xenograft; FIG. 3a)	final tumor weight (SW620 xenograft; FIG. 3b)	colony formation on soft agar (HT-29 cells)	degradation of exogenous overexpressed RAS (K-RAS-G12V) protein (K-RAS-G12V)	colony formation on soft agar (SW620 cells)
52%	O=C(NCc1c(F)cccc1Cl)c1csc(-c2n[nH]c3ccccc23)c1 [I-a-1]	can effectively enhance the degradation of endogenous K-RAS-G12V proteins and has good concentration dependence	can effectively inhibit colony formation of the cells	could effectively inhibit the growth of cancer cells with RAS positive genetic background in nude mice; also recorded: can effectively inhibit the increase of tumor volume and has good dose dependence	obviously smaller than that of the control group	does not inhibit colony formation of the cells	can effectively enhance the degradation of exogenous overexpressed RAS proteins and has good concentration dependence	–
21%	O=C(NCc1c(F)cccc1Cl)c1csc(-c2n[nH]c3ncccc23)c1 [III-a-1]	–	–	–	–	–	–	can effectively inhibit colony formation of the cells
